According to patent US8362015B2, “Aminoacyl prodrug derivatives and medicaments for treatment of thromboembolic disorders” (Bayer Intellectual Property GmbH, priority 2006, dated 2013):
Counter-ions that a name gives are not always drawn.

What was measured:
[1] = Stability in buffer at various pH values (HPLC, unchanged test substance); format: physicochemical; conditions: acetonitrile/buffer 1:1
Method: 0.3 mg of the test substance is weighed into a 2 ml HPLC vial and 0.5 ml of acetonitrile is added. The substance is dissolved by putting the sample vessel in an ultrasonic bath for about 10 seconds. Then 0.5 ml of the respective buffer solution is added, and the sample is again treated in the ultrasonic bath.
Buffer solutions employed: • pH 4.0: 1 liter of Millipore water is adjusted to pH 4.0 with 1 N hydrochloric acid; • pH 7.4: 90 g of sodium chloride, 13.61 g of potassium dihydrogen phosphate and 83.35 g of 1 M sodium hydroxide solution are made up to 1 liter with Millipore water and then diluted 1:10.
5 μl portions of the test solution are analysed by HPLC for their content of unchanged test substance every hour over a period of 24 hours at 25° C. The percentage areas of the appropriate peaks are used for quantification.
Agilent 1100 with DAD (G1314A), binary pump (G1312A), autosampler (G1329A), column oven (G1316A), thermostat (G1330A); column: Kromasil 100 C18, 60 mm×2.1 mm, 3.5 μm; column temperature: 30° C.; eluent A: water+5 ml of perchloric acid/liter, eluent B: acetonitrile; gradient: 0-1.0 min 98% A, 2% B→1.0-9.0 min 2% A, 98% B; 9.0-13.0 min 2% A, 98% B; 13.0-13.5 min 98% A, 2% B; 13.5-15.0 98% A, 2% B; flow rate: 0.75 ml/min; UV detection: 210 nm.
The ratios of the peak areas (F) at the respective time points in relation to the peak areas at the starting time are shown in Table 2 for representative exemplary embodiments: […]

[2] = Determination of the solubility in dilute hydrochloric acid (pH 4); format: physicochemical; conditions: aqueous buffer, thermodynamic from solid, room temperature, shaken 24 h
Method: The test substance is suspended in water or dilute hydrochloric acid (pH 4). This suspension is shaken at room temperature for 24 h. After ultracentrifugation at 224 000 g for 30 min, the supernatant is diluted with DMSO and analysed by HPLC. A two-point calibration plot of the test compound in DMSO is used for quantification.
Agilent 1100 with DAD (G1315A), quat. pump (G1311A), autosampler CTC HTS PAL, degasser (G1322A) and column thermostat (G1316A); column: Kromasil C18, 60×2.1 mm, 3.5 μm; temperature: 30° C.; eluent A: water+5 ml of perchloric acid/liter, eluent B: acetonitrile; flow rate: 0.7 ml/min; gradient: 0-0.5 min 98% A, 2% B; ramp 0.5-4.5 min 10% A, 90% B; 4.5-6 min 10% A, 90% B; ramp 6.5-6.7 min 98% A, 2% B; 6.7-7.5 min 98% A, 2% B.

Compound | % test substance after 4 h [F(t = 4 h) × 100/F(t = 0 h)] ([1]; buffer pH 4, 25° C.) [%] | % test substance after 24 h [F(t = 24 h) × 100/F(t = 0 h)] ([1]; buffer pH 4, 25° C.) [%] | % test substance after 4 h [F(t = 4 h) × 100/F(t = 0 h)] ([1]; buffer pH 7.4, 25° C.) [%] | % test substance after 24 h [F(t = 24 h) × 100/F(t = 0 h)] ([1]; buffer pH 7.4, 25° C.) [%] | solubility at 24 h [2] [µg/mL]
NCC(=O)OCCCCC(=O)N(C[C@H]1CN(c2ccc(N3CCOCC3=O)cc2)C(=O)O1)C(=O)c1ccc(Cl)s1 [Example 2, hydrochloride] | 101 | 101 | 99 | 94 | 
CC(C)[C@H](N)C(=O)OCCCCC(=O)N(C[C@H]1CN(c2ccc(N3CCOCC3=O)cc2)C(=O)O1)C(=O)c1ccc(Cl)s1 [Example 3, hydrochloride] | 100 | 101 | 100 | 100 | > 3500
CC(C)[C@H](N)C(=O)SCCCCC(=O)N(C[C@H]1CN(c2ccc(N3CCOCC3=O)cc2)C(=O)O1)C(=O)c1ccc(Cl)s1 [Example 4, S-(5-{[(5-Chloro-2-thienyl)carbonyl]({(5S)-2-oxo-3-[4-(3-oxomorpholin-4-yl)phenyl]-1,3-oxazolidin-5-yl}methyl)amino}-5-oxopentyl)(2S)-2-amino-3-methylbutanethioate hydrochloride] | 100 | 100 | 92 | 77 | 
NCC(=O)SCCCCC(=O)N(C[C@H]1CN(c2ccc(N3CCOCC3=O)cc2)C(=O)O1)C(=O)c1ccc(Cl)s1 [Example 5, S-(5-{[(5-Chloro-2-thienyl)carbonyl]({(5S)-2-oxo-3-[4-(3-oxomorpholin-4-yl)phenyl]-1,3-oxazolidin-5-yl}methyl)amino}-5-oxopentyl)aminoethanethioate hydrochloride] | 100 | 100 | 96 | 84 | 
NCCCC[C@H](N)C(=O)SCCCCC(=O)N(C[C@H]1CN(c2ccc(N3CCOCC3=O)cc2)C(=O)O1)C(=O)c1ccc(Cl)s1 [Example 6, S-(5-{[(5-Chloro-2-thienyl)carbonyl]({(5S)-2-oxo-3-[4-(3-oxomorpholin-4-yl)phenyl]-1,3-oxazolidin-5-yl}methyl)amino}-5-oxopentyl)(2S)-2,6-diaminohexanethioate dihydrochloride] | 99 | 99 | 90 | 53 | 
C[C@H](N)C(=O)SCCCCC(=O)N(C[C@H]1CN(c2ccc(N3CCOCC3=O)cc2)C(=O)O1)C(=O)c1ccc(Cl)s1 [Example 7, S-(5-{[(5-Chloro-2-thienyl)carbonyl]({(5S)-2-oxo-3-[4-(3-oxomorpholin-4-yl)phenyl]-1,3-oxazolidin-5-yl}methyl)amino}-5-oxopentyl)(2S)-2-aminopropanethioate hydrochloride] | 100 | 101 | 97 | 84 | > 500
CC(C)[C@H](N)C(=O)SCCCC(=O)N(C[C@H]1CN(c2ccc(N3CCOCC3=O)cc2)C(=O)O1)C(=O)c1ccc(Cl)s1 [Example 8, S-(5-{[(5-Chloro-2-thienyl)carbonyl]({(5S)-2-oxo-3-[4-(3-oxomorpholin-4-yl)phenyl]-1,3-oxazolidin-5-yl}methyl)amino}-4-oxobutyl)(2S)-2-amino-3-methylbutanethioate hydrochloride] | 100 | 100 | 86 | 48 | 
O=C(NCCCCC(=O)N(C[C@H]1CN(c2ccc(N3CCOCC3=O)cc2)C(=O)O1)C(=O)c1ccc(Cl)s1)[C@@H]1CCCN1 [Example 11, N-(5-{[(5-Chloro-2-thienyl)carbonyl]({(5S)-2-oxo-3-[4-(3-oxomorpholin-4-yl)phenyl]-1,3-oxazolidin-5-yl}methyl)amino}-5-oxopentyl)-L-prolineamide hydrochloride] | 101 | 101 | 100 | 99 | 
N[C@@H](Cc1c[nH]cn1)C(=O)NCCCCC(=O)N(C[C@H]1CN(c2ccc(N3CCOCC3=O)cc2)C(=O)O1)C(=O)c1ccc(Cl)s1 [Example 12, N-(5-{[(5-Chloro-2-thienyl)carbonyl]({(5S)-2-oxo-3-[4-(3-oxomorpholin-4-yl)phenyl]-1,3-oxazolidin-5-yl}methyl)amino}-5-oxopentyl)-L-histidinamide hydrochloride] | 100 | 101 | 99 | 93 | > 3000
NCCCC[C@H](N)C(=O)NCCCCC(=O)N(C[C@H]1CN(c2ccc(N3CCOCC3=O)cc2)C(=O)O1)C(=O)c1ccc(Cl)s1 [Example 14, N-(5-{[(5-Chloro-2-thienyl)carbonyl]({(5S)-2-oxo-3-[4-(3-oxomorpholin-4-yl)phenyl]-1,3-oxazolidin-5-yl}methyl)amino}-5-oxopentyl)-L-lysinamide hydrochloride] | 100 | 100 | 98 | 88 | 1900
